In US9511068B2, “Composition for treating or preventing diseases caused by vascular permeability, containing imatinib or pharmaceutically acceptable salt thereof as active ingredient” (AJOU UNIVERSITY INDUSTRY - ACADEMIC COOPERATION FOUNDATION, priority 2012, dated 2016):
Where a name gives a salt, the structure may show the parent alone.

Tested on: retinal vascular permeability
Assay: Retinal vascular permeability (FITC-dextran leakage) in STZ-induced diabetic retinopathy rat models
Type: in vivo, Sprague Dawley (SD) rats
Details: STZ 200 mg/kg i.p. rats; retina treated with 50, 100 or 250 μg imatinib mesylate at the same time as STZ; observed after 2 weeks by fluorescence microscope
Description: Sprague Dawley (SD) rats were administered intraperitoneally with streptozotocin (STZ; Sigma) at a dose of 200 mg/kg (control group), or were injected with STZ while the retina of the animal models were treated with 50, 100 or 250 μg of imatinib mesylate (Novartis, Switzerland) (test groups).
Meanwhile, after the animal models (control and test groups) were housed for 2 weeks, the animal models were anesthetized, and fluorescein isothiocyanate (FITC)-labeled dextran was injected intracardiacally so that the fluorescent substance flowed along the blood vessels.

## Cc1ccc(NC(=O)c2ccc(CN3CCN(C)CC3)cc2)cc1Nc1nccc(-c2cccnc2)n1 [imatinib mesylate]
  leak degree of the fluorescent substance (FITC-labeled dextran) in the retina / vascular permeability: significantly reduced
